Measurements taken from PMC11673335, “Mannich Base Derived from Lawsone Inhibits PKM2 and Induces Neoplastic Cell Death” (Biomedicines, 2024).

Target: T1, PKM2 (pyruvate kinase M2) (Homo sapiens, UniProt P14618)
T1 construct: gene PKM; recombinant human PKM2 (Sigma-Aldrich #SAE0021)
Test: LDH-coupled PKM2 activity assay; confirmed by ATP production (CellTiter-Glo)
Type: biochemical

T1 sequence (P14618 2-531): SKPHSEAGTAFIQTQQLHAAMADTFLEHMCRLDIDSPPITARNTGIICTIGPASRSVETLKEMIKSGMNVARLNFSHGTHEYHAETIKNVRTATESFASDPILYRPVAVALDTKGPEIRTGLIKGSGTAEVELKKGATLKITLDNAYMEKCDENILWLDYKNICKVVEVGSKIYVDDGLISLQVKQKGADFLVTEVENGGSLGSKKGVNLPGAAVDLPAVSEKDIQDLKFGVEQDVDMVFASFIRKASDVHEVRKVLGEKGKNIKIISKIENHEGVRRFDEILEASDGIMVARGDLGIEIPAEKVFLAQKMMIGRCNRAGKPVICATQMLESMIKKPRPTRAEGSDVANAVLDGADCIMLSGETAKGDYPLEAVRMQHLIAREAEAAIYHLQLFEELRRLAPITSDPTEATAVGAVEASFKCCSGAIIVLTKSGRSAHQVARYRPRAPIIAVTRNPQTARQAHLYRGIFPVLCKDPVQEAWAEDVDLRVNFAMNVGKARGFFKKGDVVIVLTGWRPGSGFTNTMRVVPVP

- IC50: 1040 nM
Substance: methyl benzyl((4-chlorophenyl)(3-((methoxycarbonyl)oxy)-1,4-dioxo-1,4-dihydronaphthalen-2-yl)methyl)carbamate [MB-6a]
